Test results from the PolyMetriX glass transition set.
± gives the standard deviation of the reports.

| glass transition temperature [°C] | Structure (SMILES) |
| --- | --- |
| 207.40 | *Oc1ccc(NC(=O)c2cc(C(=O)Nc3ccc(*)cc3)c(C(=O)O)cc2C(=O)O)cc1 (repeat unit) |
| 61.00 | *Oc1cc(OC(=O)c2ccc(OCCCC)cc2)c(OC(=O)C(C)(C)CCC(*)=O)cc1OC(=O)c1ccc(OCCCC)cc1 (repeat unit) |
| 266.00 | *c1ccc(Oc2ccc(-c3cc(-c4ccccc4)c4cc(Oc5ccc6nc(*)cc(-c7ccccc7)c6c5)ccc4n3)cc2)cc1 (repeat unit) |
| 65.00 | *CCCS(=O)(=O)CCCCS(=O)(=O)CCCOC(=O)c1cccc(C(=O)O*)c1 (repeat unit) |
| 318.00 | *C(=O)c1ccc2c(c1)C(=O)N(c1c(C)cc(C(c3cc(C)c(N4C(=O)c5ccc(*)cc5C4=O)c(C)c3)c3cccc4ccccc34)cc1C)C2=O (repeat unit) |
| 148.00 | *Oc1ccc(C(c2ccc(OC(*)=S)cc2)C(CC)CC)cc1 (repeat unit) |
| 30.00 | *O[Si](*)(C)OCCCCCCCCCCCOc1ccc(C2COC(c3ccc(OCC(C)CC)cc3)OC2)cc1 (repeat unit) |
| 256.00 ± 71 | *C(=O)c1ccc2c(c1)C(=O)N(c1ccc(Oc3ccc(C(C)(C)c4ccc(Oc5ccc(N6C(=O)c7ccc(*)cc7C6=O)cc5)cc4)cc3)cc1)C2=O (repeat unit) |
| 264.00 | *Oc1ccc(NC(=O)c2cccc(C(=O)Nc3ccc(*)cc3)c2)cc1 (repeat unit) |
| 98.00 | *OC(=O)c1ccc(/N=N/c2ccc(C(=O)OC3COC4C(*)COC34)cc2)cc1 (repeat unit) |
| 76.00 | *CC(*)c1ccc(C(=O)OCCCC)cc1 (repeat unit) |
| 270.00 | *c1ccc(Oc2ccc(N3C(=O)c4cccc(Oc5c(C)cc(Cc6cc(C)c(Oc7cccc8c7C(=O)N(*)C8=O)c(C)c6)cc5C)c4C3=O)cc2)cc1 (repeat unit) |
| 321.00 | *c1ccc(Oc2ccc(C3(c4ccc(Oc5ccc(-c6nnc(*)c7c(-c8ccc(F)cc8)c(-c8ccc(F)cc8)c(-c8ccc(F)cc8)c(-c8ccc(F)cc8)c67)cc5)cc4)c4ccccc4-c4ccccc43)cc2)cc1 (repeat unit) |
| 246.00 | *c1ccc(O)c(N2C(=O)c3ccc(Oc4ccc(C(C)(C)c5ccc(Oc6ccc7c(c6)C(=O)N(*)C7=O)cc5)cc4)cc3C2=O)c1 (repeat unit) |
| 155.00 | *C1=C(c2ccc(-c3ccc4c(c3)C(CCCCCC)(CCCCCC)c3cc(-c5ccc(*)cc5)ccc3-4)cc2)C(=O)N(CCCC)C1=O (repeat unit) |
| 169.50 | *c1cccc(N2C(=O)C(=O)N(CCCCCCN3C(=O)C(=O)N(*)C3=O)C2=O)n1 (repeat unit) |
| 63.00 | *CCN(CCOC(=O)CCC#CC#CCCC(=O)O*)c1ccc(/N=N/c2c(C)cc(/N=N/c3ccc(C#N)cc3)cc2C)cc1 (repeat unit) |
| 324.00 | *c1ccc(N2C(=O)c3ccc(Oc4ccc(C(C)(C)c5ccc(Oc6ccc7c(c6)C(=O)N(c6ccc8[nH]c(*)nc8c6)C7=O)cc5)cc4)cc3C2=O)cc1 (repeat unit) |
| 84.00 | *CCCCCOC(=O)OCCCCCN1C(=O)c2ccc(-c3ccc4c(c3)C(=O)N(*)C4=O)cc2C1=O (repeat unit) |
| 116.00 | *CC(*)c1cc(C(F)(F)F)cc(C(F)(F)F)c1 (repeat unit) |
| 386.00 | *Nc1ccc(-c2ccc(NC(=O)c3cccc(C(*)=O)c3)c(O)c2)cc1O (repeat unit) |
| 252.00 | *Oc1ccc(NC(=O)c2ccc(S(=O)(=O)c3ccc(C(=O)Nc4ccc(Oc5ccc(C6(c7ccc(*)cc7)C7CC8CC(C7)CC6C8)cc5)cc4)cc3)cc2)cc1 (repeat unit) |
| 1.00 | *CC(*)(C)C(=O)OCCC(C)CC(C)(C)C (repeat unit) |
| 368.00 | *C(=O)c1cc2c(cc1Cl)C(=O)N(c1cc(C(=O)O)cc(N3C(=O)c4cc(*)c(Cl)cc4C3=O)c1)C2=O (repeat unit) |
| 270.00 | *c1ccc(Oc2cccc(NC(=O)c3cc(NC(=O)c4ccc(OC(C)=O)cc4)cc(C(=O)Nc4cccc(Oc5ccc(-c6nnc(*)o6)cc5)c4)c3)c2)cc1 (repeat unit) |

| glass transition temperature [°C] | Structure (SMILES) |
| --- | --- |
| 242.00 | *c1ccc2c(c1)C(=O)N(c1ccc(Oc3ccc(C(=O)c4cccc(N5C(=O)c6ccc(C(*)(C(F)(F)F)C(F)(F)F)cc6C5=O)c4)cc3)cc1)C2=O (repeat unit) |
| 37.00 | *Oc1ccc(CC(NC(=O)CCc2ccc(OC(=O)CCCCCCC(*)=O)cc2)C(=O)OCCCC)cc1 (repeat unit) |
| 205.00 | *CCCCc1ccc(-c2c(-c3ccccc3)cc(-c3ccc(-c4cc(-c5ccccc5)c(-c5ccc(*)cc5)c(-c5ccccc5)c4-c4ccccc4)cc3)c(-c3ccccc3)c2-c2ccccc2)cc1 (repeat unit) |
| 75.00 | *CC(*)(C)C(=O)OC(C(F)(F)F)C(F)(F)F (repeat unit) |
| 58.60 | *CC(OC(C)=O)C(COC(=O)O*)OC(C)=O (repeat unit) |
| 281.00 | *C(=O)Nc1ccc(Oc2ccc(NC(=O)c3ccc4c(c3)C(=O)N(c3ccc(S(=O)(=O)c5ccc(N6C(=O)c7ccc(*)cc7C6=O)cc5)cc3)C4=O)cc2)cc1 (repeat unit) |
| 126.50 | *CC(*)c1cccc(N(c2ccc(C)cc2)c2ccc(C)cc2)c1 (repeat unit) |
| 102.00 | *CC(C)(C)COC(=O)NC(=O)c1ccc(C(=O)NC(=O)O*)cc1 (repeat unit) |
| 102.00 | *C(=O)OCCCCCCCCCCOC(=O)c1ccc(NC(=O)c2ccc(N3C(=O)c4ccc(*)cc4C3=O)cc2)cc1 (repeat unit) |
| -37.00 | */C=C/CCCCCCCCCC(Cl)CCCCCCCCC* (repeat unit) |
| 196.00 | *c1cccc(Oc2ccc(C#N)c(Oc3cccc(N4C(=O)c5ccc(Oc6ccc7c(c6)C(=O)N(*)C7=O)cc5C4=O)c3)c2)c1 (repeat unit) |
| 156.00 | *Oc1ccc(Oc2ccc(C(=O)c3ccccc3)c(-c3cc(*)ccc3C(=O)c3ccccc3)c2)cc1 (repeat unit) |
| 246.00 | *C(=O)c1ccc2c(c1)C(=O)N(c1ccc(Oc3cc4ccccc4cc3Oc3ccc(N4C(=O)c5ccc(*)cc5C4=O)cc3)cc1)C2=O (repeat unit) |
| 239.00 | *c1ccc(C(c2ccccc2)c2ccc(N(c3ccc(C)cc3)c3ccc(-c4ccc(N(*)c5ccc(C)cc5)cc4)cc3)cc2)cc1 (repeat unit) |
| 218.50 | *Oc1ccc(Oc2ccc(NC(=O)c3ccc(Oc4ccc(Oc5ccc(C(=O)Nc6ccc(*)cc6)cc5)cc4C)cc3)cc2)cc1C (repeat unit) |
| 274.00 | *Oc1ccc(NC(=C(C#N)C#N)c2ccc(C(Nc3ccc(*)cc3)=C(C#N)C#N)cc2)cc1 (repeat unit) |
| 203.50 | *CC(*)(C)C(=O)OCCCCc1ccc(/N=N/c2ccc(OC(F)(F)F)cc2)cc1 (repeat unit) |
| 194.50 | *CC(*)(C)C(=O)OCCCCCCc1ccc(/N=N/c2ccc(OC(F)(F)F)cc2)cc1 (repeat unit) |
| 234.50 | *Oc1ccc(S(=O)(=O)c2ccc(Oc3ccc(/C=C/c4ccc(*)cc4)cc3)cc2)cc1 (repeat unit) |
| 229.00 | *C(=O)Nc1ccc(Oc2ccccc2-c2ccccc2Oc2ccc(NC(=O)c3ccc4c(c3)C(=O)N(c3ccc(Oc5ccc(C(C)(C)c6ccc(Oc7ccc(N8C(=O)c9ccc(*)cc9C8=O)cc7)cc6)cc5)cc3)C4=O)cc2)cc1 (repeat unit) |
| 145.00 | *CCN(CCOC(=O)NCC1(C)CC(NC(=O)O*)CC(C)(C)C1)c1ccc(C=C(C#N)C#N)cc1 (repeat unit) |
| 285.00 | *c1ccc(Oc2ccc(N3C(=O)c4ccc(Oc5cccc6c5C(=O)N(*)C6=O)cc4C3=O)cc2)cc1 (repeat unit) |
| 166.00 | *Oc1ccc(OC(=O)c2ccc(Oc3ccc(C(*)=O)cc3)cc2)c2ccccc12 (repeat unit) |
| 150.00 | *Cc1cccc(CNC(=O)CCC2(CCC(=O)N*)c3ccccc3-c3ccccc32)c1 (repeat unit) |

| Structure (SMILES) | glass transition temperature [°C] |
| --- | --- |
| *CCC1C(=O)N(CCC)C(=O)C1* (repeat unit) | 90.40 |
| *OP(=O)(Oc1ccccc1)Oc1cccc2c(*)cccc12 (repeat unit) | 138.00 |
| *c1cccc(P(=O)(c2ccc(Oc3ccc(C45CC6CC(CC(C6)C4)C5)cc3)cc2)c2cccc(-n3c(=O)c4cc5c(=O)n(*)c(=O)c5cc4c3=O)c2)c1 (repeat unit) | 330.00 |
| *CC(*)OC(=O)OCC(F)(F)F (repeat unit) | 57.00 |
| *Cc1ccccc1[Si](*)(C)C (repeat unit) | 48.00 |
| *CC(*)C(=O)OCCCSC (repeat unit) | -65.00 |
| *c1cccc(P(=O)(c2ccc(Oc3ccc(C45CC6CC(CC(C6)C4)C5)cc3)cc2)c2cccc(N3C(=O)c4ccc(Oc5ccc6c(c5)C(=O)N(*)C6=O)cc4C3=O)c2)c1 (repeat unit) | 290.00 |
| *CCCCCCCC(=O)N* (repeat unit) | 37.00 |
| *CCCCCCOC(=O)C(CCCCCCCCCCP(=O)(O)O)C(=O)OCCCCCCOc1ccc(-n2on2-c2ccc(O*)cc2)cc1 (repeat unit) | 16.00 |
| *CC(*)c1cccc2ccccc12 (repeat unit) | 160.00 |
| *C1OCOC(C(*)(F)F)C1(F)F (repeat unit) | 125.00 |
| *N=P(*)(CC1COCCOCCOCCO1)OCC1COCCOCCOCCO1 (repeat unit) | -40.00 |
| *CCC[Si](*)(C)C[Si](C)(C)C (repeat unit) | -51.00 |
| *CC(*)C(=O)c1ccc(C(C)(C)C)cc1 (repeat unit) | 103.50 |
| *CCCCCC(=O)S* (repeat unit) | 19.00 |
| *CCCCCCCCOc1ccc(/C=C2\CC/C(=C\c3ccc(OCCCCCCCCOP(=O)(O*)OCC)c(OC)c3)C2=O)cc1OC (repeat unit) | 62.00 |
